Data as given in patent US20160176867A1, “MODIFIED BET-PROTEIN-INHIBITING DIHYDROQUINOXALINONES AND DIHYDROPYRIDOPYRAZINONES” (BAYER PHARMA AKTIENGESELLSCHAFT, priority 2013, published 2016).

Experiments:
B16F10 cells = test: Cell proliferation assay (alamarBlue), B16F10; assay type: cell-based; settings: Mus musculus, B16-F10; B16F10 (melanoma, BRAF wild-type), 96 hours
Experimental: (§1) In accordance with the invention, the ability of the substances to inhibit cell proliferation was determined. Cell viability was determined by means of the alamarBlue® reagent (Invitrogen) in a Victor X3 Multilabel Reader (Perkin Elmer). The excitation wavelength was 530 nm and the emission wavelength […].
The B16F10 cells (ATCC, CRL-6475) were sown at a concentration of 300-500 cells/well in 100 μl of growth medium (DMEM with phenol red, 10% FCS) on 96-well microtitre plates.
(§2) After overnight incubation at 37° C., the fluorescence values were determined (CI values). Then the plates were treated with various substance dilutions (1E-5 M, 3E-6 M, 1E-6 M, 3E-7 M, 1E-7 M, 3E-8 M, 1E-8 M) and incubated at 37° C. over 96 hours (MOLM-13, B16F10, CHL-1 cells) or 120 hours (MOLP-8 cells). Subsequently, the fluorescence values were determined (CO values). For the data analysis, the CI values were subtracted from the CO values and the results were compared between cells which had been treated with various dilutions of the substance or only with buffer solution. The IC50 values (substance concentration needed for 50% inhibition of cell proliferation) were calculated therefrom.

[1] = biological target: T1, BRD4 bromo domain 2 [BRD4(2)] (Homo sapiens, UniProt O60885); test: BRD4/acetylated peptide H4 binding assay (TR-FRET), BRD4 bromo domain 2; settings: inhibition of BRD4(2)/Ac-H4 peptide interaction
T1 construct: N-terminally His6-tagged BRD4(2) (amino acids 357-445); made in house; host or cells: E. coli
How it was run: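 IC50 comes from a 4-parameter fit over 0.1 nM–20 μM in duplicate, normalised to DMSO and no-protein controls. TR-FRET (Eu-streptavidin/anti-His-XL665) tracks His-tagged BRD4(2) 357-445 at 100 nM binding Ac-H4 peptide in HEPES pH 7.5 buffer. Incubation was 1 h at 22 °C, then at 4 °C ≥3 h up to overnight.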

MOLP-8 cells = test: Cell proliferation assay (alamarBlue), MOLP-8; assay type: cell-based; settings: Homo sapiens; MOLP-8 (multiple myeloma), 120 hours
Experimental: as §1
The MOLP-8 cells (DSMZ, ACC 569) were sown at a concentration of 4000 cells/well in 100 μl of growth medium (RPMI1640, 20% FCS) on 96-well microtitre plates.
as §2

Row | SMILES | IC50 (B16F10 cells) | IC50 [1] | IC50 (MOLP-8 cells)
1 | CC1C(=O)N(C)c2ccc(Nc3cccc(C(=O)NC4CCN(C)CC4)c3)nc2N1c1ccccc1 (racemic) [Example 104, 3-[(1,3-dimethyl-2-oxo-4-phenyl-1,2,3.4-tetrahydropyrido[2,3-b]pyrazin-6-yl)amino]-A-(1-methylpiperidin-4-yl)benzamide] | 2.43 µM | 0.471 µM | 0.826 µM
2 | CC(C)N1c2nc(Nc3cccc(S(=O)(=O)N[C@H]4CC[C@H](N5CCN(CC6CC6)CC5)CC4)c3)ccc2N(C)C(=O)[C@H]1C [Example 34, N-{trans-4-[4-(cyclopropylmethyl)piperazin-1-yl]cyclohexyl}-3-{[(3R)-4-isopropyl-1,3-dimethyl-2-oxo-1,2,3,4-tetrahydropyrido[2,3-b]pyrazin-6-yl]amino}-benzenesulphonamide] | 0.202 µM | 0.125 µM | 0.02 µM
3 | CC(C)N1c2nc(Nc3cccc(C(=O)N[C@H]4CC[C@H](N5CCN(CC6CC6)CC5)CC4)c3)ccc2N(C)C(=O)[C@H]1C [Example 79, N-{trans-4-[4-(cyclo-propylmethyl)piperazin-1-yl]cyclohexyl}-3-{[(3R)-4-isopropyl-1,3-dimethyl-2-oxo-1,2,3,4-tetrahydropyrido[2,3-b]pyrazin-6-yl]amino}benzamide] | 0.478 µM | 0.116 µM | 0.077 µM
4 | C[C@@H]1C(=O)N(C)c2ccc(Nc3cccc(S(=O)(=O)N4CCOCC4)c3)nc2N1C1CCOCC1 [Example 9, (3R)-1,3-Dimethyl-6-{[3-(morpholin-4-ylsulphonyl)phenyl]amino}-4-(tetrahydro-2H-pyran-4-yl)-3,4-dihydropyrido[2,3-b]pyrazin-2(1H)-one] | 0.078 µM | 0.054 µM | 0.04 µM
5 | Cc1nnc(-c2cccc(Nc3ccc4c(n3)N(C3CCOCC3)[C@H](C)C(=O)N4C)c2)o1 [Example 134, (3R)-1,3-Dimethyl-6-{[3-(5-methyl-1,3,4-oxadiazol-2-yl)phenyl]amino}-4-(tetrahydro-2H-pyran-4-yl)-3,4-dihydropyrido[2,3-b]pyrazin-2(1H)-one] | 0.768 µM | 0.191 µM | 0.453 µM
6 | C[C@@H]1C(=O)N(C)c2ccc(Nc3cccc(S(=O)(=O)N(C)C)c3)cc2N1C1CCOCC1 [Example 7, 3-{[(3R)-1,3-Dimethyl-2-oxo-4-(tetrahydro-2H-pyran-4-yl)-1,2,3,4-tetrahydroguinoxalin-6-yl]amino}-N,N-dimethylbenzenesulphonamide] | 0.178 µM | 0.071 µM | –
7 | COc1ccc(CN2c3cc(Nc4cccc(S(=O)(=O)N(C)C)c4)ccc3N(C)C(=O)[C@H]2C)cc1 [Example 10, 3-{[(3R)-4-(4-Methoxybenzyl)-1,3-dimethyl-2-oxo-1,2,3,4-tetrahydroquinoxalin-6-yl]amino}-N,N-dimethylbenzenesulphonamide] | 0.122 µM | 0.062 µM | 0.082 µM
8 | CC(C)N1c2nc(Nc3cccc(S(=O)(=O)NC4CCN(C)CC4)c3)ccc2N(C)C(=O)[C@H]1C [Example 51, 3-{[(3R)-4-isopropyl-1,3-dimethyl-2-oxo-1,2,3,4-tetrahydropyrido[2,3-b]pyrazin-6-yl]amino}-N-(1-methylpiperidin-4-yl)benzenesulphonamide] | 0.423 µM | 0.099 µM | 0.058 µM
9 | C[C@@H]1C(=O)N(C)c2ccc(Nc3cccc(C(=O)NCCN(C)C)c3)nc2N1C1CCCC1 [Example 4, 3-{[(3R)-4-Cyclopentyl-1,3-dimethyl-2-oxo-1,2,3,4-tetrahydropyrido[2,3-b]pyrazin-6-yl]amino}-N-[2-(dimethylamino)ethyl]benzamide] | 0.778 µM | 0.101 µM | 0.249 µM
10 | C[C@@H]1C(=O)N(C)c2ccc(Nc3cccc(C(=O)NC4CN(C)C4)c3)nc2N1C1CCCC1 [Example 3, 3-{[(3R)-4-Cyclopentyl-1,3-dimethyl-2-oxo-1,2,3,4-tetrahydropyrido[2,3-b]pyrazin-6-yl]amino}-N-(1-methylazetidin-3-yl)benzamide] | 0.695 µM | 0.091 µM | 0.187 µM
11 | C[C@@H]1C(=O)N(C)c2ccc(Nc3cccc(C(=O)N[C@H]4CC[C@H](N5CCN(CC6CC6)CC5)CC4)c3)nc2N1C1CCCC1 [Example 5, 3-{[(3R)-4-Cyclopentyl-1,3-dimethyl-2-oxo-1,2,3,4-tetrahydropyrido[2,3-b]pyrazin-6-yl]amino}-N-{trans-4-[4-(cyclopropylmethyl)piperazin-1-yl]cyclohexyl}benzamide] | 0.506 µM | 0.059 µM | 0.136 µM
12 | C[C@@H]1C(=O)N(C)c2ccc(Nc3cccc(C(=O)NC4CCN(C)CC4)c3)nc2N1C1CCCC1 [Example 2, 3-{[(3R)-4-Cyclopentyl-1,3-dimethyl-2-oxo-1,2,3,4-tetrahydropyrido[2,3-b]pyrazin-6-yl]amino}-N-(1-methylpiperidin-4-yl)benzamide] | 0.442 µM | 0.089 µM | 0.114 µM
13 | C[C@@H]1C(=O)N(C)c2ccc(Nc3cccc(S(=O)(=O)NC4CCN(C)CC4)c3)nc2N1C1CCOCC1 [Example 20, 3-{[(3R)-1,3-Dimethyl-2-oxo-4-(tetrahydro-2H-pyran-4-yl)-1,2,3,4-tetrahydropyrido[2,3-b]pyrazin-6-yl]amino}-N-(1-methylpiperidin-4-yl)benzenesulphonamide] | 0.556 µM | 0.052 µM | 0.19 µM
14 | C[C@@H]1C(=O)N(C)c2ccc(Nc3cccc(S(=O)(=O)N4CCOCC4)c3)cc2N1C1CCOCC1 [Example 8, (3R)-1,3-Dimethyl-6-{[3-(morpholin-4-ylsulphonyl)phenyl]amino}-4-(tetrahydro-2H-pyran-4-yl)-3,4-dihydroquinoxalin-2(1H)-one] | 0.258 µM | 0.089 µM | –
15 | C[C@@H]1C(=O)N(C)c2ccc(Nc3cccc(C(=O)NC4CCN(C)CC4)c3)nc2N1C1CCOCC1 [Example 13, 3-{[(3R)-1,3-Dimethyl-2-oxo-4-(tetrahydro-2H-pyran-4-yl)-1,2,3,4-tetrahydropyrido[2,3-b]pyrazin-6-yl]amino}-N-(1-methylpiperidin-4-yl)benzamide] | 0.84 µM | 0.218 µM | 0.306 µM
16 | CC(C)N1c2nc(Nc3cccc(S(=O)(=O)NCCN(C)C)c3)ccc2N(C)C(=O)[C@H]1C [Example 55, N-[2-(dimethylamino)-ethyl]-3-{[(3R)-4-isopropyl-1,3-dimethyl-2-oxo-1,2,3,4-tetrahydro-pyrido[2,3-b]pyrazin-6-yl]amino}benzene-sulphonamide] | 0.312 µM | 0.149 µM | 0.048 µM
17 | C[C@@H]1C(=O)N(C)c2ccc(Nc3cccc(S(=O)(=O)N[C@H]4CC[C@H](N5CCN(CC6CC6)CC5)CC4)c3)nc2N1C1CCOCC1 [Example 35, N-{trans-4-[4-(cyclopropylmethyl)-piperazin-1-yl]cyclohexyl}-3-{[(3R)-1,3-dimethyl-2-oxo-4-(tetrahydro-2H-pyran-4-yl)-1,2,3,4-tetrahydropyrido[2,3-b]pyrazin-6-yl]amino}-benzenesulphonamide] | 0.146 µM | 0.069 µM | 0.023 µM
18 | CC(C)N1c2nc(Nc3cccc(C(=O)N4CCN(C)CC4)c3)ccc2N(C)C(=O)[C@H]1C [Example 77, (3R)-4-isopropl-1,3-dimethyl-6-({3-[(4-methylpiperazin-1-yl)carbonyl]phenyl}-amino)-3,4-dihydro-pyrido[2,3-b]pyrazin-2(1H)-one] | 0.973 µM | 0.118 µM | 0.494 µM
19 | CC(C)N1c2nc(Nc3cccc(C(=O)N4CCN(CC5CC5)CC4)c3)ccc2N(C)C(=O)[C@H]1C [Example 88, (3R)-6-[(3-{[4-(cyclo-propylmethyl)piperazin-1-yl]carbonyl}phenyl)amino]-4-isopropyl-1,3-dimethyl-3,4-dihydropyrido[2,3-b]pyrazin-2(1H)-one] | 1.62 µM | 0.177 µM | 0.876 µM
20 | CC(C)N1c2nc(Nc3cccc(S(=O)(=O)N4CCN(C)CC4)c3)ccc2N(C)C(=O)[C@H]1C [Example 43, (3R)-4-isopropyl-1,3-dimethyl-6-({3-[(4-methylpiperazin-1-yl)sulphonyl]phenyl}-amino)-3,4-dihydropyrido-[2,3-b]pyrazin-2(1H)-one] | 0.537 µM | 0.096 µM | 0.144 µM
21 | C[C@@H]1C(=O)N(C)c2ccc(Nc3cccc(S(=O)(=O)N4CCN(C)CC4)c3)nc2N1C1CCOCC1 [Example 12, (3R)-1,3-Dimethyl-6-({3-[(4-methylpiperazin-1-yl)sulphonyl]phenyl}amino)-4-(tetrahydro-2H-pyran-4-yl)-3,4-dihydropyrido[2,3-b]pyrazin-2(1H)-one] | 0.544 µM | 0.068 µM | 0.126 µM
